The values below come from PubChem BioAssay (NCI).

SMILES strings stand for the structures.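 Each compound was tested at five concentrations against cells in 96-well plates for 48 hours. Abbreviation: GI50, concentration required for 50% inhibition of growth. The concentration for full growth arrest is given as TGI.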 Bounds are passed on as bounds.

Test systems include UACC-257 melanoma; MOLT-4 leukemia; RPMI-8226 leukemia; SN12C renal; HCT-15 colon; UO-31 renal; RXF 393 renal; SW-620 colon; SK-MEL-2 melanoma; SK-MEL-28 melanoma.
Common to all, as to test: inhibition of tumour cell growth, NCI panel, 48 h

Regarding `Cc1nc2ccccc2c(/C=C/c2ccc(Br)cc2)c1C(=O)/C=C/c1ccccc1`, the GI50 with UACC-257 melanoma is 1.68 µM; in the assay on MOLT-4 leukemia, 0.696 µM; in the assay with RPMI-8226 leukemia, 1.38 µM; with SN12C renal it was 1.76 µM; in the assay on HCT-15 colon it was 1.31 µM; with UO-31 renal, 1.21 µM. Moreover, the GI50 in the assay on RXF 393 renal is 1.64 µM; in the assay on SW-620 colon it was 1.54 µM; in the assay with SK-MEL-2 melanoma, 1.75 µM; in the assay on SK-MEL-28 melanoma it was 1.89 µM. Besides, the TGI in the assay with UACC-257 melanoma was 3.22 µM; in the assay on MOLT-4 leukemia, 5.06 µM; in the assay with RPMI-8226 leukemia, 5.1 µM; in the assay with SN12C renal, 3.68 µM; in the assay with HCT-15 colon it was 3.71 µM; in the assay with UO-31 renal it was 2.44 µM. Moreover, the TGI with RXF 393 renal came to 3.07 µM; in the assay on SW-620 colon it was 4.45 µM; in the assay on SK-MEL-2 melanoma it was 3.46 µM; in the assay on SK-MEL-28 melanoma, 3.4 µM.
Regarding `CCOC1=C2N=C(Cc3ccccc3F)N=C2C(=O)c2ccccc21`, the TGI with UACC-257 melanoma, with MOLT-4 leukemia, in the assay with RPMI-8226 leukemia, with SN12C renal, in the assay on HCT-15 colon and in the assay on UO-31 renal was more than 100 µM each time. For the same compound, the TGI in the assay with RXF 393 renal, in the assay on SW-620 colon, with SK-MEL-2 melanoma and in the assay with SK-MEL-28 melanoma was more than 100 µM each time.
For `CN(CCCCCl)P(=O)(OCCS(=O)(=O)CC(NC(=O)CCC(N)C(=O)O)C(=O)NC(C(=O)O)c1ccccc1)OCC1OC(n2cc(F)c(=O)[nH]c2=O)CC1O` (stereo not drawn), the GI50 was 4.58 µM in the assay on UACC-257 melanoma; 0.274 µM in the assay on MOLT-4 leukemia; 0.41 µM in the assay on SN12C renal; 1.32 µM in the assay on HCT-15 colon; 0.0973 µM in the assay on UO-31 renal; 4 µM in the assay with RXF 393 renal. The GI50 in the assay with SW-620 colon was 1.28 µM; with SK-MEL-2 melanoma, more than 49.7 µM; in the assay on SK-MEL-28 melanoma it was 15.2 µM. Also, the TGI is more than 100 µM with UACC-257 melanoma; more than 95.5 µM with MOLT-4 leukemia; 1.48 µM in the assay with RPMI-8226 leukemia; 16.9 µM in the assay on SN12C renal; 46.6 µM in the assay with HCT-15 colon; more than 81.2 µM in the assay with UO-31 renal. For the same compound, the TGI with RXF 393 renal is more than 100 µM; in the assay with SW-620 colon, more than 64.4 µM; in the assay on SK-MEL-2 melanoma it was more than 100 µM; with SK-MEL-28 melanoma, more than 100 µM.
Regarding `Cn1c2ccccc2n2c(=O)c3c(c(C#N)c12)CCCC3`, the TGI in the assay on UACC-257 melanoma, in the assay on MOLT-4 leukemia, with RPMI-8226 leukemia, in the assay on SN12C renal, in the assay on HCT-15 colon and with UO-31 renal was more than 100 µM throughout. For the same compound, the TGI in the assay on RXF 393 renal, in the assay with SW-620 colon, with SK-MEL-2 melanoma and in the assay with SK-MEL-28 melanoma was more than 100 µM throughout.
Consider `COC(=O)c1nc(-c2ccccc2)oc1S(=O)(=O)n1nc(C)cc1N`, for which the GI50 in the assay with UACC-257 melanoma was 18.6 µM; in the assay on MOLT-4 leukemia, 3.08 µM; in the assay on RPMI-8226 leukemia, 5.39 µM; in the assay on SN12C renal, 5.64 µM; with HCT-15 colon, 4.51 µM; in the assay on UO-31 renal it was 8.59 µM. For the same compound, the GI50 in the assay with RXF 393 renal was 11.9 µM; with SW-620 colon it was 3.22 µM; in the assay with SK-MEL-2 melanoma it was 13.7 µM; with SK-MEL-28 melanoma, 14.7 µM. Moreover, the TGI worked out at 39.7 µM in the assay on UACC-257 melanoma; 11.4 µM in the assay with MOLT-4 leukemia; 23.4 µM in the assay with RPMI-8226 leukemia; 19.7 µM in the assay on SN12C renal; 17.8 µM with HCT-15 colon; 21.1 µM in the assay with UO-31 renal. For the same compound, the TGI in the assay on RXF 393 renal amounted to 24.7 µM; in the assay with SW-620 colon it was 11.2 µM; with SK-MEL-2 melanoma, 30.5 µM; in the assay with SK-MEL-28 melanoma it was 29.9 µM.
As for `C[C@@H]1O[C@@H](O[C@H]2CC[C@@]3(C)[C@H](CCC4[C@@H]3C(O)C[C@]3(C)[C@@H](c5ccc(=O)oc5)CC[C@]43O)C2)[C@H](O)[C@H](O)[C@H]1O` (stereo partly drawn), the GI50 is 0.00589 µM in the assay with UACC-257 melanoma; less than 0.00325 µM in the assay on MOLT-4 leukemia; 0.00792 µM in the assay on RPMI-8226 leukemia; less than 0.00325 µM with SN12C renal; 0.00786 µM in the assay with HCT-15 colon; 0.00577 µM with UO-31 renal. Further, the GI50 is 0.0064 µM in the assay on RXF 393 renal, 0.00489 µM in the assay with SW-620 colon, 0.00741 µM in the assay on SK-MEL-2 melanoma and 0.0062 µM in the assay on SK-MEL-28 melanoma. Besides, the TGI is 0.0121 µM with UACC-257 melanoma; 0.0278 µM in the assay with RPMI-8226 leukemia; 0.758 µM in the assay with SN12C renal; 0.0209 µM in the assay on HCT-15 colon; 0.015 µM with UO-31 renal; 0.0194 µM in the assay on RXF 393 renal. In addition, the TGI worked out at 0.0123 µM in the assay on SW-620 colon, 0.0163 µM in the assay with SK-MEL-2 melanoma and 0.0119 µM in the assay on SK-MEL-28 melanoma.
As to `N#CN1CC[C@H](C(=O)Nc2ncc(-c3ccncc3)s2)C1`, the GI50 is 0.605 µM with UACC-257 melanoma; less than 0.01 µM in the assay on MOLT-4 leukemia; less than 0.0201 µM with RPMI-8226 leukemia; less than 0.0277 µM in the assay with SN12C renal; less than 0.021 µM with HCT-15 colon; less than 0.0188 µM in the assay on UO-31 renal. The GI50 in the assay with RXF 393 renal was 0.0238 µM; in the assay with SW-620 colon it was 0.023 µM; with SK-MEL-2 melanoma it was less than 0.01 µM; with SK-MEL-28 melanoma, 0.0814 µM. For the same compound, the TGI is 6.91 µM with UACC-257 melanoma; 3.8 µM in the assay with MOLT-4 leukemia; 1.27 µM in the assay on RPMI-8226 leukemia; 38.4 µM with SN12C renal; more than 100 µM in the assay with HCT-15 colon; 0.758 µM in the assay on UO-31 renal. For the same compound, the TGI was 0.242 µM in the assay on RXF 393 renal, 19.5 µM with SW-620 colon, 0.0976 µM in the assay with SK-MEL-2 melanoma and 9.19 µM in the assay on SK-MEL-28 melanoma.
For `COc1ccc(C(=O)N2c3ccccc3Sc3ccccc32)c(OC)c1`, the GI50 in the assay on UACC-257 melanoma is 27.8 µM; in the assay with MOLT-4 leukemia, 0.447 µM; with RPMI-8226 leukemia it was 0.523 µM; in the assay with SN12C renal it was 0.586 µM; in the assay with HCT-15 colon it was 0.464 µM; in the assay with UO-31 renal, 0.739 µM. The GI50 with RXF 393 renal was 0.413 µM; in the assay with SW-620 colon it was 0.412 µM; in the assay with SK-MEL-2 melanoma, 0.585 µM; in the assay on SK-MEL-28 melanoma it was 0.942 µM. The TGI is more than 100 µM with UACC-257 melanoma; more than 100 µM in the assay on MOLT-4 leukemia; 29.9 µM in the assay on RPMI-8226 leukemia; more than 100 µM in the assay with SN12C renal; more than 100 µM with HCT-15 colon; more than 100 µM in the assay with UO-31 renal. Moreover, the TGI with RXF 393 renal, with SW-620 colon, in the assay on SK-MEL-2 melanoma and with SK-MEL-28 melanoma was more than 100 µM each time.
